Source: the supplement of paper PMC5908809

Columns and labels:
[1] = test system: NK-92 (IL-2 2.5 ng/mL); assay: drug sensitivity score (DSS) (DSS units); higher = more sensitive; extreme values may be limits of the assay; conditions: 72 h
[2] = test system: DERL-7 (IL-2 2.5 ng/mL); assay: as above; conditions: 72 h
[3] = test system: KHYG-1 (IL-2 2.5 ng/mL); assay: as above; conditions: 72 h
[4] = test system: SNK-6 (IL-2 2.5 ng/mL); assay: as above; conditions: 72 h
[5] = test system: NK-YS (IL-2 2.5 ng/mL); assay: as above; conditions: 72 h
[6] = test system: normal primary NK cells, pool 1 (3 donors), resting (IL-2 0 ng/mL); assay: as above; conditions: 72 h
[7] = test system: normal primary NK cells, pool 1 (3 donors) (IL-2 2.5 ng/mL); assay: as above; conditions: 72 h
[8] = test system: YT (IL-2 2.5 ng/mL); assay: as above; conditions: 72 h
[9] = test system: NKL (IL-2 2.5 ng/mL); assay: as above; conditions: 72 h
[10] = test system: normal primary NK cells, pool 3 (3 donors) (IL-2 2.5 ng/mL); assay: as above; conditions: 72 h
[11] = test system: normal primary NK cells, pool 2 (3 donors) (IL-2 2.5 ng/mL); assay: as above; conditions: 72 h
[12] = test system: KAI3 (IL-2 2.5 ng/mL); assay: as above; conditions: 72 h
[13] = test system: IMC-1 (IL-2 20 ng/mL); assay: as above; conditions: 72 h
[14] = test system: normal NK cells expanded with K562-aAPC; assay: percent inhibition of viability; higher = more inhibition; conditions: 72 h, IL-2 2.5 ng/mL
Procedure: (§1)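 Drug sensitivity and resistance testing on K562-aAPC-expanded normal NK cells: 5 concentrations (10-fold steps over a 10,000-fold range), 72 h at 37 °C, viability by CellTiter-Glo normalised to DMSO and benzethonium chloride controls; DSS from the fitted curve.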

[15] = test system: normal NK cells expanded with K562-aAPC; assay: drug sensitivity score (DSS) (DSS units); higher = more sensitive; extreme values may be limits of the assay; conditions: 72 h; IL-2 2.5 ng/mL
Procedure: as §1

[16] = test system: NK-92 (IL-2 2.5 ng/mL); assay: percent inhibition of viability; higher = more inhibition; conditions: 72 h
[17] = test system: DERL-7 (IL-2 2.5 ng/mL); assay: as above; conditions: 72 h
[18] = test system: KHYG-1 (IL-2 2.5 ng/mL); assay: as above; conditions: 72 h
[19] = test system: SNK-6 (IL-2 2.5 ng/mL); assay: as above; conditions: 72 h
[20] = test system: NK-YS (IL-2 2.5 ng/mL); assay: as above; conditions: 72 h
[21] = test system: normal primary NK cells, pool 1 (3 donors), resting (IL-2 0 ng/mL); assay: as above; conditions: 72 h
[22] = test system: normal primary NK cells, pool 1 (3 donors) (IL-2 2.5 ng/mL); assay: as above; conditions: 72 h
[23] = test system: YT (IL-2 2.5 ng/mL); assay: as above; conditions: 72 h
[24] = test system: NKL (IL-2 2.5 ng/mL); assay: as above; conditions: 72 h
[25] = test system: normal primary NK cells, pool 3 (3 donors) (IL-2 2.5 ng/mL); assay: as above; conditions: 72 h
[26] = test system: normal primary NK cells, pool 2 (3 donors) (IL-2 2.5 ng/mL); assay: as above; conditions: 72 h
[27] = test system: KAI3 (IL-2 2.5 ng/mL); assay: as above; conditions: 72 h
[28] = test system: IMC-1 (IL-2 20 ng/mL); assay: as above; conditions: 72 h

Nc1ccn([C@@H]2O[C@H](CO)[C@@H](O)C2(F)F)c(=O)n1 [Gemcitabine] (max concentration tested 1000 nM)
Conditions	drug sensitivity score
[1]	31
[2]	23.7
[3]	32.6
[4]	25.1
[5]	28.4
[6]	0.38
[7]	0.96
[8]	17.4
[9]	38.4
[10]	3.49
[11]	3.97
[12]	27.6
[13]	30.6
[15]	24.5

percent inhibition of viability [%]
Conditions	0.1 nM	1 nM	10 nM	100 nM	1000 nM
[14]	1.65	34.8	55.6	74.6	88.2
[16]	-6.25	12.2	92.2	104	104
[17]	-4.73	-12.3	44.9	99.7	99.8
[18]	2.22	12.5	101	105	105
[19]	18.4	13.8	57.7	94.6	100
[20]	-3.23	-1.72	87.7	97.1	101
[21]	-12.2	-40.4	-21.2	-27.6	23.4
[22]	-2.78	-14	4.7	-1.17	26.4
[23]	2.42	-2.18	20.1	78.2	65
[24]	-10.6	68.9	102	106	104
[25]	-9.85	-6.72	16.8	12.6	38
[26]	-12.2	-6.97	19.6	14.7	29.7
[27]	-18.3	3.34	79.8	98.3	101
[28]	-7.53	2	99.1	101	101

C[C@]12CC[C@H](O)CC1=CC[C@@H]1[C@@H]2CC[C@]2(C)C(c3cccnc3)=CC[C@@H]12 [Abiraterone] (max concentration tested 5000 nM)
Conditions	drug sensitivity score
[1]	3.2
[2]	0
[3]	0
[4]	0.89
[5]	0.2
[6]	1
[7]	0
[8]	0
[9]	0
[10]	0
[11]	0
[12]	1.81
[13]	1.72
[15]	0.21

percent inhibition of viability [%]
Conditions	0.5 nM	5 nM	50 nM	500 nM	5000 nM
[14]	-3.92	-2.08	-4.35	-1.44	15.5
[16]	3.02	0.66	4.19	19.8	18.9
[17]	-1.84	6.7	-3.24	8.85	-0.3
[18]	2.05	18.6	-0.59	2.88	6.94
[19]	-4.3	-11.1	-26.2	-25.2	-1.46
[20]	4.24	-1.71	1.76	0.55	14
[21]	2.81	1.54	10.1	10.2	16.1
[22]	-9.05	-7.76	5.1	-0.54	-7.49
[23]	-0.02	9.21	-0.43	11.5	4.01
[24]	8.55	9.91	1.09	12.8	9.69
[25]	5.18	4.84	1.7	15.9	-1.9
[26]	-1.86	7.99	1.79	9.51	6.09
[27]	4.32	6.7	11.6	12.4	18.3
[28]	-0.05	0.08	1.73	4.6	25.9

O=C1c2c(O)ccc(O)c2C(=O)c2c(NCCNCCO)ccc(NCCNCCO)c21 [Mitoxantrone] (max concentration tested 1000 nM)
Conditions	drug sensitivity score
[1]	4.12
[2]	10
[3]	6.72
[4]	12.2
[5]	8.97
[6]	8.71
[7]	3.14
[8]	1.43
[9]	17.5
[10]	2.25
[11]	4.44
[12]	9.23
[13]	8.2
[15]	6.19

percent inhibition of viability [%]
Conditions	0.1 nM	1 nM	10 nM	100 nM	1000 nM
[14]	1.76	1.15	1.38	19	62
[16]	-10.5	-26.1	-3.86	11.4	45.4
[17]	-0.69	-3.99	7.25	45.4	81.1
[18]	-1.32	3.99	7.39	17.7	72.5
[19]	15	22.1	31.1	20.5	73.1
[20]	-6.35	-2.16	9.79	37.1	85.1
[21]	-14	-28.2	-16.5	24.1	91.4
[22]	1.11	-8.14	0.77	-0.51	58.9
[23]	-1.6	4.64	3.75	-0.47	32.4
[24]	-8.85	3.32	12	87	107
[25]	-18.6	-1.63	-2.35	-0.69	45.1
[26]	-14.3	-3.15	3.94	9.38	53.6
[27]	-18.6	-16.5	-1.68	41.7	74.6
[28]	-4.49	-5.12	2.6	19.3	92.1

O=C(c1cc(Cc2n[nH]c(=O)c3ccccc23)ccc1F)N1CCN(C(=O)C2CC2)CC1 [Olaparib] (max concentration tested 10000 nM)
Conditions	drug sensitivity score
[1]	7.35
[2]	1.54
[3]	5.78
[4]	8.04
[5]	8.28
[6]	0.22
[7]	0
[8]	1.37
[9]	14.5
[10]	0.4
[11]	0.48
[12]	7.15
[13]	4.75
[15]	3.25

percent inhibition of viability [%]
Conditions	1 nM	10 nM	100 nM	1000 nM	10000 nM
[14]	5.19	4.79	5.47	7.88	39.6
[16]	4.94	9.54	8.93	21.5	79.2
[17]	-1.68	4.77	-8.94	1.1	31.5
[18]	-5.18	-5.25	0.38	10.5	72.6
[19]	1.96	-1.75	-10.2	19.4	89.5
[20]	-6.43	-6.57	3.49	20.7	90.7
[21]	-10.9	1.92	-9.9	-1.32	15.6
[22]	3.22	7.12	-3.15	3.31	8.24
[23]	4.35	1.35	5.37	3.91	22.8
[24]	0.33	9.8	27.9	57.2	80.5
[25]	-7.91	-1.82	-4.22	3.8	13.5
[26]	-7.93	-9.67	-11	2.31	15.4
[27]	0.33	3.77	9.9	28.6	72.2
[28]	2.29	1.77	7.69	13.7	53.5

Nc1nc(NC2CC2)cc(-c2cccc(Cl)c2Cl)n1 [TH588] (max concentration tested 25000 nM)
Conditions	drug sensitivity score
[1]	14.2
[2]	5.47
[3]	12.6
[4]	14.5
[5]	13.8
[6]	2.68
[7]	1.81
[8]	12.3
[9]	12.1
[10]	0.02
[11]	2.06
[12]	8.66
[13]	6.5
[15]	3.67

percent inhibition of viability [%]
Conditions	2.5 nM	25 nM	250 nM	2500 nM	25000 nM
[14]	-9.36	-5.78	-3.43	4.8	54.4
[16]	-1.92	-6.94	2.79	72.5	101
[17]	-0.31	1.28	1.11	0.06	97.7
[18]	-2.9	-3.16	5.7	58.7	107
[19]	0.31	-17.3	9.99	71.7	81.9
[20]	1.83	-0.35	11.3	66.7	80.4
[21]	-2.99	16.5	4.87	14.2	27.3
[22]	-0.99	16	3.84	5.63	25.9
[23]	-5.04	-2.09	4.62	56.5	101
[24]	-9.98	-13.7	2.66	55.4	98.6
[25]	-2.82	4	7.93	2.77	13.5
[26]	-12	6.63	10.1	10.4	25.7
[27]	0.95	-6.22	2.89	42	64.7
[28]	-9.26	1.24	2.13	7.29	96.8
